The source of these data is PubChem BioAssay AID248 (DTP/NCI, 2004).

“And” between values parts separate entries of the source, which are not always exact repeats. Identical values can stand only once. Inconclusive results and toxic doses are left out.

In this test the test system is L1210 leukemia ip in BDF1 mice, survival T/C. Kind of test: NCI In Vivo Anticancer Drug Screen. Data for tumor model L1210 Leukemia (intraperitoneal) in B6D2F1 (BDF1) mice. To be noted: endpoint: mean survival time, higher = longer survival. In short, it runs like this:
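Read-out is survival time, reported as the treated-group measurement over the vehicle-control measurement.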

The mark [1] stands for this setting: dose: 100.0 mg/kg/injection, schedule: Q04DX002 (ip), vehicle: Klucel (hydroxypropylcellulose) (HPC).
The mark [2] stands for this setting: dose: 200.0 mg/kg/injection, schedule: Q04DX002 (ip), vehicle: Klucel (hydroxypropylcellulose) (HPC).
Where [3] appears, read: dose: 400.0 mg/kg/injection, schedule: Q04DX002 (ip), vehicle: Klucel (hydroxypropylcellulose) (HPC).
[4] abbreviates: dose: 100.0 mg/kg/injection, schedule: Q04DX003 (ip), vehicle: Klucel (hydroxypropylcellulose) (HPC).
The mark [5] stands for this setting: dose: 100.0 mg/kg/injection, schedule: Q01DX009 (ip), vehicle: saline with Tween-80.
Setting [6] is: dose: 100.0 mg/kg/injection, schedule: Q04DX003 (ip), vehicle: saline with Tween-80.
[7] abbreviates: dose: 200.0 mg/kg/injection, schedule: Q01DX009 (ip), vehicle: saline with Tween-80.
Setting [8] is: dose: 200.0 mg/kg/injection, schedule: Q04DX003 (ip), vehicle: saline with Tween-80.
The mark [9] stands for this setting: dose: 400.0 mg/kg/injection, schedule: Q01DX009 (ip), vehicle: saline with Tween-80.
The mark [10] stands for this setting: dose: 400.0 mg/kg/injection, schedule: Q04DX003 (ip), vehicle: saline with Tween-80.

On to `COC(=O)C1(C(=O)OC)C2CC(C)=C(C)CC21` (centres undefined), for which the T/C runs as follows: (dose: 25.0 mg/kg/injection, schedule: Q01DX009 (ip), vehicle: saline) 109 % of control; (dose: 50.0 mg/kg/injection, schedule: Q01DX009 (ip), vehicle: saline) 93 % of control; (dose: 100.0 mg/kg/injection, schedule: Q01DX009 (ip), vehicle: acetone) 90 % of control; (dose: 100.0 mg/kg/injection, schedule: Q01DX009 (ip), vehicle: saline) 104 % of control; (dose: 200.0 mg/kg/injection, schedule: Q01DX009 (ip), vehicle: acetone) 94 % of control; (dose: 400.0 mg/kg/injection, schedule: Q01DX009 (ip), vehicle: acetone) 87 % of control.
On to `CC(=O)Nc1c(CCCCc2ccccc2)[nH]c(=O)[nH]c1=O`, for which the T/C (dose: 25.0 mg/kg/injection, schedule: Q01DX001 (ip), vehicle: Klucel (hydroxypropylcellulose) (HPC)) was 101 % of control; the T/C (dose: 50.0 mg/kg/injection, schedule: Q01DX001 (ip), vehicle: Klucel (hydroxypropylcellulose) (HPC)) is 92 % of control; the T/C (dose: 100.0 mg/kg/injection, schedule: Q01DX001 (ip), vehicle: Klucel (hydroxypropylcellulose) (HPC)) was 99 % of control and 101 % of control.
Turning to `OC(c1ccc(Cl)cc1)c1nc2ccccc2[nH]1` (centres undefined), the T/C is, setting by setting: under setting [1], 100 % of control; under setting [2], 100 % of control; under setting [3], 103 % of control.
Consider `CC(=O)Nc1nc(Cl)c([N+](=O)[O-])c(Cl)n1`, for which the T/C runs as follows: (dose: 3.12 mg/kg/injection, schedule: Q04DX002 (ip), vehicle: Klucel (hydroxypropylcellulose) (HPC)) 103 % of control; (dose: 6.25 mg/kg/injection, schedule: Q04DX002 (ip), vehicle: Klucel (hydroxypropylcellulose) (HPC)) 100 % of control; (dose: 12.5 mg/kg/injection, schedule: Q01DX001 (ip), vehicle: Klucel (hydroxypropylcellulose) (HPC)) 92 % of control; (dose: 12.5 mg/kg/injection, schedule: Q04DX002 (ip), vehicle: Klucel (hydroxypropylcellulose) (HPC)) 103 % of control.
In the case of `CCOCc1cc(Cc2cc(COCC)c3cccnc3c2O)c(O)c2ncccc12`, the T/C reads like this: (dose: 75.0 mg/kg/injection, schedule: Q01DX001 (ip), vehicle: carboxymethylcellulose (CMC)) 97 % of control; (dose: 150.0 mg/kg/injection, schedule: Q01DX001 (ip), vehicle: carboxymethylcellulose (CMC)) 105 % of control; (dose: 300.0 mg/kg/injection, schedule: Q01DX001 (ip), vehicle: carboxymethylcellulose (CMC)) 103 % of control.
For the compound `CC(C)(C)C1CN1C(=S)Nc1ccccc1` (centres undefined), the T/C under setting [4] was 104 % of control; the T/C (dose: 200.0 mg/kg/injection, schedule: Q04DX003 (ip), vehicle: Klucel (hydroxypropylcellulose) (HPC)) is 105 % of control; the T/C (dose: 400.0 mg/kg/injection, schedule: Q04DX003 (ip), vehicle: Klucel (hydroxypropylcellulose) (HPC)) was 102 % of control.
Consider `CS(=O)(=O)OCCN(CCOS(C)(=O)=O)c1ccc(C=Nc2ccc3ccccc3c2)cc1`, for which the T/C (dose: 20.0 mg/kg/injection, schedule: Q04DX003 (ip), vehicle: Klucel (hydroxypropylcellulose) (HPC)) is 110 % of control; the T/C (dose: 40.0 mg/kg/injection, schedule: Q04DX003 (ip), vehicle: Klucel (hydroxypropylcellulose) (HPC)) is 117 % of control; the T/C (dose: 53.3 mg/kg/injection, schedule: Q04DX003 (ip), vehicle: Klucel (hydroxypropylcellulose) (HPC)) is 152 % of control; the T/C under setting [4] is 120 % of control; the T/C (dose: 120.0 mg/kg/injection, schedule: Q04DX003 (ip), vehicle: Klucel (hydroxypropylcellulose) (HPC)) was 95 % of control and 100 % of control.
For the compound `CCN(CCNC(=O)NC(C)(C)C)c1ccccc1`, the T/C by setting is: under setting [5], 115 % of control and 91 % of control; (dose: 100.0 mg/kg/injection, schedule: Q04DX002 (ip), vehicle: saline with Tween-80) 96 % of control and 100 % of control; under setting [6], 97 % of control; under setting [7], 97 % of control and 91 % of control; (dose: 200.0 mg/kg/injection, schedule: Q04DX002 (ip), vehicle: saline with Tween-80) 96 % of control and 97 % of control; under setting [8], 106 % of control. For the same compound, the T/C by setting is: under setting [9], 97 % of control and 88 % of control; (dose: 400.0 mg/kg/injection, schedule: Q04DX002 (ip), vehicle: saline with Tween-80) 94 % of control and 89 % of control; under setting [10], 92 % of control.
As to `CC(=O)c1cccc(NC(=O)N(C)Cc2ccccc2)c1`, the T/C is, setting by setting: (dose: 100.0 mg/kg/injection, schedule: Q01DX009 (ip), vehicle: Klucel (hydroxypropylcellulose) (HPC)) 109 % of control; (dose: 200.0 mg/kg/injection, schedule: Q01DX009 (ip), vehicle: Klucel (hydroxypropylcellulose) (HPC)) 100 % of control; (dose: 400.0 mg/kg/injection, schedule: Q01DX009 (ip), vehicle: Klucel (hydroxypropylcellulose) (HPC)) 112 % of control.
With `CCC(C(=O)OC)C1CCCCC1` (centres undefined), the T/C is 100 % of control under setting [5]; 103 % of control under setting [6]; 87 % of control under setting [7]; 95 % of control under setting [8]; 92 % of control under setting [9]; 95 % of control under setting [10].
As to `Nc1nc2c(=O)[nH]cnc2n1C1OC(CO)C(O)C1O` (centres undefined), the T/C is 102 % of control (dose: 5.0 mg/kg/injection, schedule: Q01DX001 (ip), vehicle: saline); 104 % of control (dose: 10.0 mg/kg/injection, schedule: Q01DX001 (ip), vehicle: saline); 102 % of control (dose: 20.0 mg/kg/injection, schedule: Q01DX001 (ip), vehicle: saline).
As to `CCOc1ccc(/C=N/NC(=O)C(O)c2ccccc2)cc1OC` (centres undefined), the T/C is 97 % of control under setting [5], 92 % of control under setting [7] and 90 % of control under setting [9].
`Cc1cccc(NC(=S)Nc2ccccc2)c1C`: the T/C under setting [1] was 94 % of control, the T/C under setting [2] was 105 % of control and the T/C under setting [3] is 101 % of control.
As for `c1ccc2c(c1)CCc1ccccc1C2NC1=NCCO1`, the T/C was 94 % of control (dose: 12.5 mg/kg/injection, schedule: Q01DX009 (ip), vehicle: saline with Tween-80); 97 % of control (dose: 12.5 mg/kg/injection, schedule: Q04DX003 (ip), vehicle: saline with Tween-80); 89 % of control (dose: 25.0 mg/kg/injection, schedule: Q01DX009 (ip), vehicle: saline with Tween-80); 100 % of control (dose: 25.0 mg/kg/injection, schedule: Q04DX003 (ip), vehicle: saline with Tween-80); 93 % of control (dose: 50.0 mg/kg/injection, schedule: Q01DX009 (ip), vehicle: saline with Tween-80); 93 % of control (dose: 50.0 mg/kg/injection, schedule: Q04DX003 (ip), vehicle: saline with Tween-80).
Take `CCCCCCCc1ccc(C(C)=O)cc1`: the T/C is 100 % of control under setting [6]; 97 % of control (dose: 132.0 mg/kg/injection, schedule: Q04DX003 (ip), vehicle: saline with Tween-80); 101 % of control under setting [8]; 93 % of control (dose: 300.0 mg/kg/injection, schedule: Q04DX003 (ip), vehicle: saline with Tween-80); 108 % of control under setting [10].
For the compound `CCNC(=O)NCc1ccc(Cl)c(Cl)c1`, the T/C under setting [1] is 105 % of control and the T/C under setting [2] was 99 % of control.
`COc1ccc(NC(=O)Nc2c(C)cccc2C)cc1`: the T/C runs as follows: (dose: 100.0 mg/kg/injection, schedule: Q01DX009 (ip), vehicle: gum acacia) 97 % of control; (dose: 100.0 mg/kg/injection, schedule: Q04DX003 (ip), vehicle: gum acacia) 97 % of control; (dose: 200.0 mg/kg/injection, schedule: Q01DX009 (ip), vehicle: gum acacia) 97 % of control; (dose: 200.0 mg/kg/injection, schedule: Q04DX003 (ip), vehicle: gum acacia) 92 % of control; (dose: 400.0 mg/kg/injection, schedule: Q01DX009 (ip), vehicle: gum acacia) 92 % of control; (dose: 400.0 mg/kg/injection, schedule: Q04DX003 (ip), vehicle: gum acacia) 91 % of control.
In the case of `Cn1cnc2cc(N=Cc3ccc(N(CCCl)CCCl)cc3Cl)ccc21`, the T/C under setting [1] is 108 % of control, the T/C under setting [2] is 101 % of control and the T/C under setting [3] was 101 % of control.
As for `O=c1[nH]c(=O)n(C2OC(CO)C(O)C2O)cc1CCC(F)(F)F` (centres undefined), the T/C reads like this: (dose: 50.0 mg/kg/injection, schedule: Q01DX005 (ip), vehicle: saline) 94 % of control; (dose: 100.0 mg/kg/injection, schedule: Q01DX005 (ip), vehicle: saline) 109 % of control; (dose: 200.0 mg/kg/injection, schedule: Q01DX005 (ip), vehicle: saline) 98 % of control.
